The text below walks through data of patent US9256062B2, “Electrowetting display apparatus and dye composition for electrowetting display” (FUJIFILM CORPORATION, priority 2012, dated 2016).

Type in all cases: physicochemical
Data set [1] in a line: Color tone of colored solution, visually observed. As to conditions: 0.001%-by-mass n-decane solution. The source says:
(§1) Azamethine colorants (the above-mentioned Exemplary Compounds 16, 17, 1, and 3 shown in Table 1 below) and n-decane that was an organic solvent were mixed, respectively, thereby preparing 4 kinds of 0.001%-by-mass n-decane solutions (colored compositions) colored with the azamethine colorants, respectively.
(§2) Separately, azo colorants (Comparative Compounds 1 to 3 mentioned below) and n-decane that was an organic solvent were mixed, respectively, thereby preparing 3 kinds of 0.001%-by-mass n-decane solutions (comparative colored compositions) colored with the azo colorants, respectively, as comparative colored compositions.
Each of the colored solutions (colored compositions) was visually observed and evaluated regarding the color tone thereof.

Data set [2] is described as follows: Maximum absorption wavelength, absorbance and absorption coefficient (visible light spectrophotometer). As to conditions: for Absorbance (abs) / Maximum absorption wavelength (λmax): 0.001%-by-mass n-decane solution; for Molar absorption coefficient (ε): at maximum absorption wavelength, calculated by Lambert-Beer law, n-decane solution; for molar extinction coefficients (ε) (in words): summary of Table 1.
Text: as §1, §2
The maximum absorption wavelength (λmax) and the absorbance of the colored solutions (colored compositions) were measured using a visible light spectrophotometer (UV-1800 PC, trade name, manufactured by Shimadzu Corporation). Further, the molar extinction coefficient (∈) at a maximum absorption wavelength (λmax) of the colorants included in the colored solutions (the colored compositions) was calculated, based on a Lambert-Beer law.

The nature of a further data set: Solubility in hexane. The conditions noted are these: for Solubility in hexane [%]: n-hexane, 25° C. and 0.1 MPa, % by mass; for solubility in hexane (in words): summary of Table 1. As to the method:
The solubility of each of the colorants in n-hexane as a non-polar solvent was measured as described below.
The respective colorants were each dissolved in n-hexane that had been heated to 50° C. to prepare a saturated solution, and then, the obtained saturated solution was left to stand for 1 hour under an environment of 25° C. and 0.1 MPa. The precipitated colorant was filtered, and the precipitation amount was measured to calculate the solubility (% by mass) of each of the colorants in n-hexane at 25° C. and 0.1 MPa.

Data set [3] in a line: Relative dielectric constant of colorant. As to conditions: for Relative dielectric constant (1 kHz): extrapolated to colorant concentration 100% from diluted n-decane solutions, 1.0 V, 20° C., 40% RH; for relative dielectric constants (in words): summary of Table 1. The method, then: Herein, the relative dielectric constant of the colorant denotes a relative dielectric constant (calculated value) at a colorant concentration of 100%, as determined by extrapolating a straight line (calibration curve) indicating the relationship between the colorant concentration and the relative dielectric constant in a diluted colorant solution.
An equivalent parallel capacitance when a measurement frequency 1 kHz and a measurement voltage of 1.0 V are applied is measured in the state in which a diluted colorant solution is sandwiched between two electrodes facing each other with an electrode interval of 10 μm, and the relative dielectric constant of the diluted colorant solution is calculated by the following equation, based on the equivalent parallel capacitance thus obtained. Relative dielectric constant of diluted colorant solution=Equivalent parallel capacitance×Electrode interval/Electrode area/Dielectric constant of vacuum (∈0)
The relative dielectric constant of each of the colorants is determined by the following method.
That is, the relative dielectric constants of plural diluted colorant solutions at various concentrations, which had been prepared as described in (4-1) below, were measured, respectively, in the manner as described in (4-2) below. From the results obtained, a straight line (calibration curve) showing the relationship between the colorant concentrations and the relative dielectric constants were created. The relative dielectric constant (calculated value) at a colorant concentration of 100% was determined by extrapolating the straight line (calibration curve), and the obtained value was taken as the relative dielectric constant of the colorant.
The respective colorants and n-decane as an organic solvent are mixed, to thereby prepare n-decane solutions (diluted colorant solutions) at various concentrations, respectively.
A diluted colorant solution was sandwiched between ITO electrode-containing glass substrates that are flat plates in parallel facing each other at an electrode interval of 10 μm, and then an equivalent parallel capacitance was measured at the time of voltage application for measurement of 1.0 V at a frequency for measurement of 1 kHz under the conditions of 20° C. and 40% RH using a Model 2353LCR meter (trade name, manufactured by NF Corporation). Based on the equivalent parallel capacitance, the relative dielectric constant of the diluted colorant solution was determined in accordance with the following equation.
Relative dielectric constant of diluted colorant solution=Equivalent parallel capacitance×Interval of electrodes/Area of electrode/Dielectric constant of vacuum (∈0)

Take `CCCCC(CC)c1nnc2n1N=C(C(C)(C)C)/C2=N/c1c(C(C)(C)C)nn2c(C(CC)CCCC)n[nH]c12` (stereo not drawn) [Exemplary Compound 1]: the Color of solution entry in data set [1] is recorded as “Orange”. Moreover, in data set [2], the “Absorbance (abs)” value is given as 0.533 abs, the “Maximum absorption wavelength (λmax)” value was determined as 492 nm, the Molar absorption coefficient (ε) was 28600 L/mol/cm and the “molar extinction coefficients (ε) (in words)” value is “high”. Moreover, in “Solubility in hexane”, the “Solubility in hexane [%]” value was 10% and the “solubility in hexane (in words)” value is given as “high solubility”. In data set [3], the “Relative dielectric constant (1 kHz)” value is 3.3 and the “relative dielectric constants (in words)” value is reported as “low”.

For `CCCCC(CC)c1n[nH]c2c(/N=C3/C(C#N)=C(C(=O)OC4C(C(C)(C)C)CC(C)CC4C(C)(C)C)c4nc(C(C)(C)C)nn43)c(C(C)(C)C)nn12` (stereo not drawn) [Exemplary Compound 3], the Color of solution result in data set [1] is reported as “Red”. Besides, in data set [2], the “Absorbance (abs)” value was 0.797 abs, the “Maximum absorption wavelength (λmax)” value came out at 545 nm, the Molar absorption coefficient (ε) is 56900 L/mol/cm and the “molar extinction coefficients (ε) (in words)” value was “high”. For the same molecule, in the data set “Solubility in hexane”, the “Solubility in hexane [%]” value is ≥ 40 or % and the “solubility in hexane (in words)” value is reported as “high solubility”. In data set [3], the “Relative dielectric constant (1 kHz)” value is on record as 5.1 and the “relative dielectric constants (in words)” value is given as “low”.
